Results: patent publication US8119616B2, “Formulation of quinazoline based EGFR inhibitors containing a zinc binding moiety” (Curis, Inc., priority 2007, dated 2012)
Where two headings read alike, the source gives them in different places.

Key:
[1] = tested on: various cancer cell lines; test: Anti-proliferative activity in various cancer cell lines (Table D, FIG. 3); assay type: cell-based; settings: five major types of cancer (lung, breast, prostate, colon, and pancreas)
Experimental: Cell Proliferation Assay:
Cancer cell lines were plated at 5,000 to 10,000 per well in 96-well flatted bottomed plates with various concentration of compounds. The cells were incubated with compounds for 72 hours in the presence of 0.5% of fetal bovine serum. Growth inhibition was accessed by adenosine triphosphate (ATP) content assay using Perkin Elmer ATPlite kit. ATPlite is an ATP monitoring system based on firefly luciferase. Briefly, 25 μl of mammalian cell lysis solution was added to 50 μl of phenol red-free culture medium per well to lyse the cells and stabilize the ATP. 25 μl of substrate solution was then added to the well and subsequently the luminescence was measured.
Table D illustrates the potency of compounds of the invention.

HDAC = test: Ac-H4 and Ac-H3 accumulation in MDA-MB-468 breast cancer cell line; assay type: cell-based; settings: FIG. 2
A549 NSCLC = A549 NSCLC Xenograft model; assay type: in vivo, mice; settings: compared with vehicle or control
Experimental: A representative protocol for the in vivo experiment is as followed:
1-10×10^6 human cancer cells were implanted subcutaneously to the athymic (nu/nu) mice. When the tumors reached about 100 mm^3 in volume, the mice were treated with the compound by tail vein infusion. Routinely 5 groups (8-12 mice per group) are needed for a typical efficacy study, including one negative control, one positive control, and three testing groups for 3 dose levels of the same compound. Usually a 7-7-5 (on-off-on) regimen was used for one typical study. The tumor size was measured with an electronic caliper and body weight measured with a scale twice weekly. The tumors were removed from euthanized mice at the end of the study. One half of each tumor was frozen in dry ice and stored at −80° C. for PK or Western blot analysis. The other half was fixed with formalin. The fixed tissues were processed, embedded in paraffin and sectioned for immunohistochemistry staining. Protocol for Radioisotope assay for HER2

[2] = tested on: HCT-116 (colon) and SKBr3 (breast) cancer cells; test: Induction of apoptosis (Caspase 3&7 activity); assay type: cell-based; settings: HCT-116 and SKBr3, 24 hours
human EGFR = target: T1, human EGFR (Homo sapiens, UniProt P00533); test: HTScan EGF Receptor Kinase assay; assay type: biochemical; settings: FIG. 1
T1 construct: human EGFR (His672-Ala1210); purchased Cell Signaling Technologies; host or cells: baculovirus expression system
T1 sequence (P00533 672-1210): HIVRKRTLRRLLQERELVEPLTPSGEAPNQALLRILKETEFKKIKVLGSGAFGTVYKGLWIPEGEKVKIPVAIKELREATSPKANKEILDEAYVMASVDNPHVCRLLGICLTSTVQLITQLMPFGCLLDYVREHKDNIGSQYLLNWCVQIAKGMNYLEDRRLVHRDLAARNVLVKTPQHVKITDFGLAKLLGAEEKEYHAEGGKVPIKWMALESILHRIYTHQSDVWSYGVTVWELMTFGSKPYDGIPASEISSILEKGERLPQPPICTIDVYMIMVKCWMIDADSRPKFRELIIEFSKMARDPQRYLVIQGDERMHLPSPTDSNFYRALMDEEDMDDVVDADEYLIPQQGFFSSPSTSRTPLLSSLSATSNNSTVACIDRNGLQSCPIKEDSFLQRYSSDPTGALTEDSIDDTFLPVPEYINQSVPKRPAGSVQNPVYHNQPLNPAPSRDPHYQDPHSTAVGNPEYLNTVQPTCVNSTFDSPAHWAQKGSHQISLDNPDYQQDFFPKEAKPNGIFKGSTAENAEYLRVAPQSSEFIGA
Experimental: The ability of compounds to inhibit receptor kinase (EGFR) activity was assayed using HTScan™ EGF Receptor Kinase Assay Kits (Cell Signaling Technologies, Danvers, Mass.). […] The protein was purified by one-step affinity chromatography using glutathione-agarose.
Immediately transfer enzyme from −80° C. to ice. Allowed enzyme to thaw on ice. […] Returned immediately to ice. […] Incubated reaction plate at room temperature for 30 minutes. […] Added 100 μl/well primary antibody. Incubated at room temperature for 60 minutes. […] Added 100 μl/well diluted antibody. Incubated at room temperature for 30 minutes. […] Incubated at room temperature for 5 minutes.

[3] = male, CD-1, mouse, in vivo, iv, 9 day
Experimental: Single dosing MTD in mice • a. CD-1 mice, male, 24-26 gram • b. Dosing at 0, 50, 100, 200, 400 mg/kg, iv infusion 2 min • c. 8 mice per group
(§1) Stock solution is diluted with 30% CAPTISOL before use.

[4] = both, Sprague Dawley, rat, in vivo, iv, 8 days
Experimental: Single dosing MTD in rats • a. Sprague Dawley, male and female, 240-260 gram • b. Dosing at 0, 25, 50, 100, 200 mg/kg, iv infusion 5 min • c. 6 rats per group (3 male and 3 female)
as §1

[5] = both, Sprague Dawley, rat, in vivo, iv, 7 days
Experimental: 7-day multiple dosing MTD in rats • a. Sprague Dawley, male and female, 220-250 gram • b. Dose, 25, 50, 100, 200 mg/kg/d) iv infusion 5 min • c. 6 per group (3 male and 3 female) • d. Blood and organs will be collected 2 hr after last dosing on Day 7 for hematology Compound Preparation
as §1

EGFR = EGFR phosphorylation in MDA-MB-468 breast cancer cell line; assay type: cell-based; settings: FIG. 2
Experimental: Allowed A431 cell growth in a T75 flask using standard tissue culture procedures until cells reach near confluency (˜1.5×10^7) cells; D-MEM, 10% FBS). Under sterile conditions dispensed 100 μl of the cell suspension per well in 96-well microplates (x cells plated per well). Incubated cells and monitor cell density until confluency is achieved with well-to-well consistency; approximately three days. Removed complete media from plate wells by aspiration or manual displacement. Replaced media with 50 μl of pre-warmed serum free media per well and incubated 4 to 16 hours. Made two fold serial dilutions of inhibitor using pre-warmed D-MEM so that the final concentration of inhibitor range from 10 μM to 90 pM. Removed media from A431 cell plate. Added 100 μl of serial diluted inhibitor into cells and incubate 1 to 2 hours. Removed inhibitor from plate wells by aspiration or manual displacement. Added either serum free media for resting cells (mock) or serum free media with 100 ng/ml EGF. Used 100 μl of resting/activation media per well. Allowed incubation at 37° C. for 7.5 minutes. Removed activation or stimulation media manually or by aspiration. Immediately fixed cells with 4% formaldehyde in 1×PBS. […] Determined the ratio of […] protein (700/800) using Odyssey software and plot the results in Graphpad Prism (V4.0a).

Question: What does the source list for `C#Cc1cccc(Nc2ncnc3cc(OC)c(OCCCCCCC(=O)NO)cc23)c1` [Compound 12, 7-(4-(3-ethynylphenylamino)-7-methoxyquinazolin-6-yloxy)-N-hydroxyheptanamide]?
Answer: response of cell lines compared with a combination of erlotinib and SAHA [1]: responded better to compound 12 than a combination of erlotinib and SAHA; inhibition of histone acetylation compared with SAHA (HDAC): improvement in inhibition; effect on tumor size / tumor growth (A549 NSCLC): attenuated tumor growth; cell apoptosis as measured by increased Caspase 3&7 activity [2]: 4-11 times; activity in EFGR enzyme assay compared with erlotinib and SAHA (human EGFR): more active than erlotinib and SAHA; dose that did not result in a significant change in body weight [3]: up to 200 mg/kg; dose that did not result in a significant change in body weight [4]: up to 200 mg/kg; dose that did not result in a significant change in body weight or food consumption [5]: up to 100 mg/kg; inhibition of EGFR phosphorylation compared with Erlotinib (EGFR): improvement in inhibition
